Source: patent US20190100549A1, “FLAVONOIDE-TYPE COMPOUNDS BEARING AN O-RHAMNOSYL RESIDUE” (Universitaet Hamburg, priority 2016, published 2019)
Where “and” joins values, the source holds several entries; their conditions need not be identical. Equal entries are not always repeated.

What was measured:
Type in all cases: cell-based
STAT3 = STAT3 activity in HeLa-STAT3-luc cells stimulated with IFN-γ (luciferase)
Experimental: HeLa-STAT3-luc cells were stably transfected with the plasmid 4xM67 pTATA TK-Luc. Cells (20×10^3 cells/ml) were seeded 96-well plate the day before the assay. Then the cells were treated with the test substances for 15 min and then stimulated with IFN-γ 25 IU/ml. After 6 h, the cells were washed twice with PBS and lysed in 50 μl lysis buffer containing 25 mM Tris-phosphate (pH 7.8), 8 mM MgCl2, 1 mM DTT, 1% Triton X-100, and 7% glycerol during 15 min at RT in a horizontal shaker. Luciferase activity was measured using GloMax 96 microplate luminometer (Promega) following the instructions of the luciferase assay kit (Promega, Madison, Wis., USA). […] The experiments for each concentration of the test items were done in triplicate wells.

NF-κB = NF-κB activity in NIH3T3-KBF-Luc cells stimulated with TNFα (luciferase); conditions: for % Activation: TNFα alone = 100
Experimental: NIH3T3-KBF-Luc cells were stably transfected with the KBF-Luc plasmid (Sancho (2003) Mol Pharmacol 63:429-438), which contains three copies of NF-κB binding site (from major histocompatibility complex promoter), fused to a minimal simian virus 40 promoter driving the luciferase gene. Cells (1×10^4 for NIH3T3-KBF-Luc) were seeded the day before the assay on 96-well plate. Then the cells were treated with the test substances for 15 min and then stimulated with 30 ng/ml of TNFα. After 6 h, the cells were washed twice with PBS and lysed in 50 μl lysis buffer containing 25 mM Tris-phosphate (pH 7.8), 8 mM MgCl2, 1 mM DTT, 1% Triton X-100, and 7% glycerol during 15 min at RT in a horizontal shaker. Luciferase activity was measured using a GloMax 96 microplate luminometer (Promega) following the instructions of the luciferase assay kit (Promega, Madison, Wis., USA). […] The experiments for each concentration of the test items were done in triplicate wells.

[1] = test system: normal human epidermal keratinocytes (NHEK); assay: Cytotoxicity on NHEK monolayer cultures (MTT reduction assay and morphological observation); conditions: for Viability (%): single values
Experimental: To determine the cytotoxicity of flavonoid-5-O-α-L-rhamnosides tests were performed versus their aglycon derivatives in cell monolayer cultures. For this purpose concentrations ranging from 1 μM to 250 μM were chosen. The viability of normal human epidermal keratinocytes (NHEK) was twice evaluated by a MTT reduction assay and morphological observation with a microscope. NHEK were grown at 37° C. and 5% CO2 aeration in Keratinocyte-SFM medium supplemented with epidermal growth factor (EGF) at 0.25 ng/mL, pituitary extract (PE) at 25 μg/mL and gentamycin (25 μg/mL) for 24 h and were used at the 3rd passage. For cytotoxicity testing, pre-incubated NHEK were given fresh culture medium containing a specific concentration of test compound and incubated for 24 h. After a medium change at same test concentration cells were incubated a further 24 h until viability was determined. Test results are given in Table B2 and illustrated in FIG. 10.

With `COc1ccc(-c2coc3cc(O[C@@H]4OC(C)[C@H](O)C(O)C4O)cc(O[C@@H]4OC(C)[C@H](O)C(O)C4O)c3c2=O)cc1` (stereo partly drawn) [BR1, Biochanin A-5,7-di-O-α-L-rhamnoside] the “RLU 1” value (STAT3; 25 μM + IFNγ 25 U/ml) was 8162 RLU, the “RLU 2” value (STAT3; 25 μM + IFNγ 25 U/ml) was 12819 RLU and the “RLU 3” value (STAT3; 25 μM + IFNγ 25 U/ml) was 11157 RLU. The “RLU MEAN” value (STAT3; 25 μM + IFNγ 25 U/ml) was 10713 RLU, the RLU specific (STAT3; 25 μM + IFNγ 25 U/ml) was 8878 RLU and the “% Activation” value (STAT3; 25 μM + IFNγ 25 U/ml, IFNγ alone = 100) was 110.41%. For the same compound, the “RLU 1” value (STAT3; 50 μM + IFNγ 25 U/ml) was 12336 RLU, the “RLU 2” value (STAT3; 50 μM + IFNγ 25 U/ml) was 11620 RLU and the “RLU 3” value (STAT3; 50 μM + IFNγ 25 U/ml) was 12104 RLU. The “RLU MEAN” value (STAT3; 50 μM + IFNγ 25 U/ml) was 12020 RLU, the RLU specific (STAT3; 50 μM + IFNγ 25 U/ml) was 10185 RLU and the “% Activation” value (STAT3; 50 μM + IFNγ 25 U/ml, IFNγ alone = 100) was 126.67%. For the same compound, the “RLU 1” value (NF-κB; 10 μM + 30 ng/ml TNFα) was 259120 RLU, the “RLU 2” value (NF-κB; 10 μM + 30 ng/ml TNFα) was 247590 RLU and the “RLU 3” value (NF-κB; 10 μM + 30 ng/ml TNFα) was 229500 RLU. For the same compound, the “RLU MEAN” value (NF-κB; 10 μM + 30 ng/ml TNFα) was 245403 RLU, the RLU specific (NF-κB; 10 μM + 30 ng/ml TNFα) was 222040 RLU and the “% Activation” value (NF-κB; 10 μM + 30 ng/ml TNFα) was 170.3%. The “RLU 1” value (NF-κB; 25 μM + 30 ng/ml TNFα) was 211660 RLU, the “RLU 2” value (NF-κB; 25 μM + 30 ng/ml TNFα) was 208010 RLU and the “RLU 3” value (NF-κB; 25 μM + 30 ng/ml TNFα) was 203720 RLU. The “RLU MEAN” value (NF-κB; 25 μM + 30 ng/ml TNFα) was 207797 RLU, the RLU specific (NF-κB; 25 μM + 30 ng/ml TNFα) was 184433 RLU and the “% Activation” value (NF-κB; 25 μM + 30 ng/ml TNFα) was 141.4%.

For `COc1ccc(-c2cc(=O)c3c(O)cc(O)cc3o2)cc1O` [Diosmetin, 5,7-Trihydroxy-4′-methoxyflavone, reference compound], the “% Activation” value (STAT3; 50 μM test substance, +IFNγ 25 U/ml, IFNγ alone = 100% activation) was 50.00%.

With `COc1ccc(C2CC(=O)c3c(O)cc(O)cc3O2)cc1O` (stereo not drawn) [Hesperetin, 3′,5,7-Trihydroxy-4′-methoxyflavanone] the “Viability (%) Mean” value ([1]; 1 μM) was 105%, the “Viability (%)” value ([1]; 1 μM) was 103% and 106% and the “Viability (%) Mean” value ([1]; 2.5 μM) was 103%. The “Viability (%)” value ([1]; 2.5 μM) was 98% and 109%, the “Viability (%) Mean” value ([1]; 5 μM) was 106% and the “Viability (%)” value ([1]; 5 μM) was 107% and 106%. The “Viability (%) Mean” value ([1]; 10 μM) was 103%, the “Viability (%)” value ([1]; 10 μM) was 101% and 105% and the “Viability (%) Mean” value ([1]; 25 μM) was 108%. The “Viability (%)” value ([1]; 25 μM) was 106% and 109%, the “Viability (%) Mean” value ([1]; 50 μM) was 106% and the “Viability (%)” value ([1]; 50 μM) was 106%. The “Viability (%) Mean” value ([1]; 100 μM) was 99%, the “Viability (%)” value ([1]; 100 μM) was 98% and 100% and the “Viability (%) Mean” value ([1]; 250 μM) was 57%. For the same compound, the “Viability (%) Mean” value ([1]; 250 μM, listed as hesperetin) was “about 50%” and the “Viability (%)” value ([1]; 250 μM) was 54% and 59%.
